Series [1] relates to erytroid leukemia cell line K-562. The series can be described thus: In vitro cytotoxic activity (metabolisation of Calcein AM). Format: cell-based, human. The settings on record: Homo sapiens, K562, 72 hours, highest concentration tested 100 μM in routine testing. A digest of the protocol: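 Cells were pre-incubated 24 hours at 2.500-30.000 cells per well, then exposed to six 3-fold dilutions, usually from 100 μM top, for 72 hours at 37° C, 5% CO2, in triplicate. Calcein AM was added at 1 μg/ml final and fluorescence read after 1 hour; GI50 is the concentration halving Calcein AM conversion.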

For series [2], the system named is human skin fibroblast line ASF-2. Nature of the series: Cell survival and toxicity (MTT assay). It counts as cell-based. As for the experimental part: All cell culture experiments were performed on early and mid passage cultures (about 20 to 40% lifespan completed) of normal human skin fibroblast line, designated ASF-2. In order to check the effects of test compounds on senescent cells, late passage cells with more than 90% lifespan completed were used. ASF-2 cell line was established from a mammary skin biopsy obtained from a young, non-smoking and healthy […] at the time of breast reduction operation. Normal culture conditions of medium (DMEM) containing antibiotics, 10% foetal calf serum, and incubation at 37° C. with 95% humidity were used. The effects of the test compounds were determined using the following procedures.
Cell survival, toxicity, and JC-1 staining. Cell survival after exposure to various doses of the test compounds was measured with the 3-(4,5 dimethylthiazol-2-yl)-2,5-diphenyltetrazolium bromide (MTT) assay. About 5,000 cells were seeded per well in a 96-well plate 24 h before the experiment. Cells were then treated with various doses of the compound to be tested. The wells were washed in Hank's and new medium was added. After three days, MTT (Sigma, M2128) was added at 0.5 mg/ml in medium. After 4 h, MTT was collected and then dissolved in isopropanol and HCl over a 12-16 h period. The absorbance at 595 nm was measured.
(Formazan colour is commonly taken as a measure of viable cells.)

Series [3] relates to SKH-1 hairless mice. The series can be described thus: Hairless mouse assay: epidermal bromodeoxyuridine (BrdU) staining. Format: in vivo. From the text: This study determined the effect of topical compound formulations on epidermal cell proliferation using bromodeoxyuridine as an immunohistochemical marker of cell proliferation. Histological examination of the treated and control skin were used to determine cutaneous effects of the topical compounds. Topical tretinoin 0.05% (Renova™) was used as a therapeutic control.
(§1) Experimental Design. 48 female SKH-1 hairless mice (5 weeks old, 20-25 grams, Charles River Laboratories, Wilmington, Mass.) are individually housed in filter-top cages, and acclimated for 5-7 days after delivery. The mice are divided into 8 treatment groups (n=6), including two different control groups (untreated control, vehicle control) and a therapeutic control (tretinoin 0.05% Renova™ cream). Cage cards are marked to indicate treatment groups 1-8. Water and mouse chow are provided ad libitum.
(§2) Topical Treatments. Beginning on Treatment Day 1, test products are applied topically each morning (Monday through Friday) after erythema evaluations for 3 weeks. Using a positive displacement pipette, 20 mg of each agent is applied to a 2 cm×2 cm area of the center midline of the back. The material was spread across the treatment area with the pipette tip.
Bromodeoxyuridine Injection. All animal groups are injected with bromodeoxyuridine (100 mg/kg) I.P. 4 hours after the final application. Animals are sacrificed by CO2 inhalation 3 hours later followed by cervical dislocation. The test sites are excised, and 6 mm punch biopsies are obtained from each treatment site, and from untreated controls. Biopsies are placed into labeled vials containing 4% neutral buffered formalin for paraffin embedding and anti-BrdU staining.
Bromodeoxyuridine Immunohistochemical Staining. Paraffin sections are cut to a […] thickness and stained using the BrdU Immuno-histochemistry kit (X1545K from Exalpha Biologicals, Inc.) and a standard staining protocol. The slides are weakly counterstained in Mayer's hematoxylin and scored under a light microscope for the number of BrdU-positive cells per mm of epidermis for each section. The data are expressed as mean BrdU-positive cells/mm for each treatment group. Differences in BrdU labeling in the treatment groups are statistically analyzed using the Students t-test. Representative photographs are taken of the histological sections of the BrdU-positive staining cells.

Series [4] has as its system SKH-1 hairless mice. Nature of the series: Hairless mouse assay: skin histology and skin compartment measurements. It counts as in vivo. To be noted: H&E stained biopsies, after 3 weeks of treatment.
Description: as §1, §2
Skin Histology. Skin biopsies are taken of each treatment site and untreated control skin. Biopsies are fixed in 4% neutral buffered formalin, embedded in paraffin, and stained with hematoxylin and eosin. The stained skin sections are examined to determine the effects of the treatment on epidermal, dermal, and stratum corneum histology. Biopsies are also microscopically examined for inflammatory cells.
Skin Compartment Measurements. The H&E stained biopsy slides were imaged using a trinocular Olympus BH-2 microscope fitted with a Microfire 2.1×3 Digital Camera. 100× images were digitized and stored on CD using MS Pictureframe and Microfire Software. All compartment images were measured using a calibrated micrometer. An average of three measurements of each compartment for two slide images per biopsy was obtained and tabulated, and means and standard deviations were calculated.

The values below come from patent US20130072506A1, “6,8-DISUBSTITUTED PURINE COMPOSITIONS” (priority 2011, published 2013).

Broadly, the GI50 is the concentration at which growth is held to half of that of the control.

With `Nc1nc2c(NCc3ccco3)ncnc2[nH]1` [Compound 82, 6-furfurylamino-8-aminopurine], in series [1], the GI50 is 68.2 µM. In series [2] (100 μM, MTT), this compound returned a reduction in survival of 15%. Also, in series [2] (500 μM, MTT), the cell survival entry was “reduction in cell survival”. Also, the “toxic effects (MTT)” value in series [2] (young fibroblasts, until a dose of 100 μM) was “little toxic effects”. In addition, the “epidermal BrdU staining” value in the series on SKH-1 hairless mice [3] (after 3 weeks of topical treatment) is reported as “more effective”. Moreover, the “Mean Nuclei Stained” value in the series on SKH-1 hairless mice [3] (epidermal BrdU staining after 3 weeks of topical treatment, 0.1% (tretinoin 0.05%)) is listed as 12.8 ± 13.3. For the same compound, the skin compartment thickness entry with SKH-1 hairless mice [4] is reported as “least effect on skin thickness”.
